Test results as given in PubChem BioAssay AID1963873 (Molecular Pharmacology Branch, DTP, NCI, 2024).
pIC50: −log10 of the molar value. Where “and” joins values, the source holds several entries; their conditions need not be identical. Equal entries are not always repeated.

Test system: 276233-004-R-J1-PDC KRAS spheroids with HUVEC/MSC, viability
Assay: Anticancer human tumor 276233-004-R-J1-PDC patient-derived colon adenocarcinoma cell line growth inhibition [KRAS2]
Details: for viability, T/C: stronger effect = lower value
Method in brief: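 KRAS-mutant tumor cells were grown as spheroids with HUVEC endothelial cells and human MSCs as stroma. Targeted agents were tested alone and with KRAS pathway inhibitors. Doses started at or near clinical Cmax, or 10 microM, descending half-log.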

[1] = curve of first compound, second compound 0.1 µM
[2] = curve of first compound, second compound 0.316 µM
[3] = curve of first compound, second compound 1 µM
[4] = curve of first compound, second compound 3.16 µM
[5] = second compound 0.1 µM, first compound 0.0316 µM
[6] = second compound 0.1 µM, first compound 0.1 µM
[7] = second compound 0.316 µM, first compound 0.0316 µM
[8] = second compound 0.316 µM, first compound 0.1 µM
[9] = second compound 1 µM, first compound 0.0316 µM
[10] = second compound 1 µM, first compound 0.1 µM
[11] = second compound 3.16 µM, first compound 0.0316 µM
[12] = second compound 3.16 µM, first compound 0.1 µM
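Note: cells exposed to agents for seven days before viability read.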
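Throughout, for viability, T/C: 100% = DMSO vehicle control wells and lower values mean fewer viable cells.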

CC1OCC2(CCN(c3cnc(Sc4ccnc(N)c4Cl)c(N)n3)CC2)C1N (stereo unspecified) + C=CC(=O)N1CCN(c2nc(OCC3CCCN3C)nc3c2CCN(c2cccc4cccc(C)c24)C3)CC1CC#N
pIC50 (curve of first compound, second compound 0.0316 µM): < 5.00
pIC50 [1]: < 5.00
pIC50 [2]: < 5.00
pIC50 [3]: 5.02
pIC50 [4]: 6.28
viability, T/C (second compound 0.0316 µM, first compound 0.0316 µM): 105%
viability, T/C (second compound 0.0316 µM, first compound 0.1 µM): 90.5%
viability, T/C (second compound 0.0316 µM, first compound 0.316 µM): 91.2%
viability, T/C (second compound 0.0316 µM, first compound 1 µM): 85.7%
viability, T/C (second compound 0.0316 µM, first compound 3.16 µM): 70.2%
viability, T/C (second compound 0.0316 µM, first compound 10 µM): 59.8%
viability, T/C [5]: 98.2%
viability, T/C [6]: 85%
viability, T/C (second compound 0.1 µM, first compound 0.316 µM): 81.5%
viability, T/C (second compound 0.1 µM, first compound 1 µM): 69.3%
viability, T/C (second compound 0.1 µM, first compound 3.16 µM): 68.7%
viability, T/C (second compound 0.1 µM, first compound 10 µM): 56.3%
viability, T/C [7]: 102%
viability, T/C [8]: 98.7%
viability, T/C (second compound 0.316 µM, first compound 0.316 µM): 83.4%
viability, T/C (second compound 0.316 µM, first compound 1 µM): 76.7%
viability, T/C (second compound 0.316 µM, first compound 3.16 µM): 67%
viability, T/C (second compound 0.316 µM, first compound 10 µM): 55.3%
viability, T/C [9]: 98.2%
viability, T/C [10]: 84.7%
viability, T/C (second compound 1 µM, first compound 0.316 µM): 81.2%
viability, T/C (second compound 1 µM, first compound 1 µM): 83.5%
viability, T/C (second compound 1 µM, first compound 3.16 µM): 63.5%
viability, T/C (second compound 1 µM, first compound 10 µM): 49%
viability, T/C [11]: 69.1%
viability, T/C [12]: 60.4%
viability, T/C (second compound 3.16 µM, first compound 0.316 µM): 58.2%
viability, T/C (second compound 3.16 µM, first compound 1 µM): 39.7%
viability, T/C (second compound 3.16 µM, first compound 3.16 µM): 35.9%
viability, T/C (second compound 3.16 µM, first compound 10 µM): 39%

CCNC(=O)CC1N=C(c2ccc(Cl)cc2)c2cc(OC)ccc2-n2c(C)nnc21 (stereo unspecified)
viability, T/C (compound 0.0316 µM): 95.8% [middle of 5 runs]
viability, T/C (compound 0.1 µM): 88.7% [middle of 5 runs]
viability, T/C (compound 0.316 µM): 68.2% [middle of 5 runs]
viability, T/C (compound 1 µM): 70.9% [middle of 5 runs]
viability, T/C (compound 3.16 µM): 71.3% [middle of 5 runs]
pIC50 (curve of compound): < 5.00 and 5.25

CN(C)C/C=C/C(=O)Nc1cc2c(Nc3ccc(F)c(Cl)c3)ncnc2cc1O[C@H]1CCOC1 + COc1cc2nc(C)nc(NC(C)c3cc(N)cc(C(F)(F)F)c3)c2cc1OC1CCOC1
pIC50 [1]: < 7.00
pIC50 [2]: < 7.00
pIC50 [3]: < 7.00
pIC50 [4]: < 7.00
pIC50 (curve of first compound, second compound 10 µM): < 7.00
viability, T/C (second compound 0.1 µM, first compound 0.000316 µM): 99.4%
viability, T/C (second compound 0.1 µM, first compound 0.001 µM): 95.6%
viability, T/C (second compound 0.1 µM, first compound 0.00316 µM): 77.4%
viability, T/C (second compound 0.1 µM, first compound 0.01 µM): 86.9%
viability, T/C [5]: 79.8%
viability, T/C [6]: 80.2%
viability, T/C (second compound 0.316 µM, first compound 0.000316 µM): 80%
viability, T/C (second compound 0.316 µM, first compound 0.001 µM): 82.9%
viability, T/C (second compound 0.316 µM, first compound 0.00316 µM): 71.7%
viability, T/C (second compound 0.316 µM, first compound 0.01 µM): 61.1%
viability, T/C [7]: 68.5%
viability, T/C [8]: 74%
viability, T/C (second compound 1 µM, first compound 0.000316 µM): 86.1%
viability, T/C (second compound 1 µM, first compound 0.001 µM): 107%
viability, T/C (second compound 1 µM, first compound 0.00316 µM): 87.9%
viability, T/C (second compound 1 µM, first compound 0.01 µM): 83.8%
viability, T/C [9]: 71.4%
viability, T/C [10]: 67.5%
viability, T/C (second compound 3.16 µM, first compound 0.000316 µM): 64.4%
viability, T/C (second compound 3.16 µM, first compound 0.001 µM): 66.9%
viability, T/C (second compound 3.16 µM, first compound 0.00316 µM): 74.7%
viability, T/C (second compound 3.16 µM, first compound 0.01 µM): 63%
viability, T/C [11]: 56%
viability, T/C [12]: 66.3%
viability, T/C (second compound 10 µM, first compound 0.000316 µM): 65%
viability, T/C (second compound 10 µM, first compound 0.001 µM): 69%
viability, T/C (second compound 10 µM, first compound 0.00316 µM): 67.4%
viability, T/C (second compound 10 µM, first compound 0.01 µM): 65.5%
viability, T/C (second compound 10 µM, first compound 0.0316 µM): 63.6%
viability, T/C (second compound 10 µM, first compound 0.1 µM): 63.4%
